The target in assay [1] is Tyrosine-protein kinase ABL2 (Homo sapiens, UniProt P42684).
The target in assay [2] is RAC-alpha serine/threonine-protein kinase (Homo sapiens, UniProt P31749).
In assay [3] the target is Bone morphogenetic protein receptor type-1B (Homo sapiens, UniProt O00238).
Assay [4] deals with Chromodomain-helicase-DNA-binding protein 4 (Homo sapiens, UniProt Q14839).
The target of assay [5] is Casein kinase I isoform gamma-1 (Homo sapiens, UniProt Q9HCP0).
For assay [6], the target named is ATP-dependent RNA helicase DDX3X (Homo sapiens, UniProt O00571).
Assay [7] addresses Serine/threonine-protein kinase/endoribonuclease IRE2 (Homo sapiens, UniProt Q76MJ5).
In assay [8] the target is T1, Mitogen-activated protein kinase kinase kinase 2 (Homo sapiens, UniProt Q9Y2U5).
T1 sequence (Q9Y2U5 whole entry): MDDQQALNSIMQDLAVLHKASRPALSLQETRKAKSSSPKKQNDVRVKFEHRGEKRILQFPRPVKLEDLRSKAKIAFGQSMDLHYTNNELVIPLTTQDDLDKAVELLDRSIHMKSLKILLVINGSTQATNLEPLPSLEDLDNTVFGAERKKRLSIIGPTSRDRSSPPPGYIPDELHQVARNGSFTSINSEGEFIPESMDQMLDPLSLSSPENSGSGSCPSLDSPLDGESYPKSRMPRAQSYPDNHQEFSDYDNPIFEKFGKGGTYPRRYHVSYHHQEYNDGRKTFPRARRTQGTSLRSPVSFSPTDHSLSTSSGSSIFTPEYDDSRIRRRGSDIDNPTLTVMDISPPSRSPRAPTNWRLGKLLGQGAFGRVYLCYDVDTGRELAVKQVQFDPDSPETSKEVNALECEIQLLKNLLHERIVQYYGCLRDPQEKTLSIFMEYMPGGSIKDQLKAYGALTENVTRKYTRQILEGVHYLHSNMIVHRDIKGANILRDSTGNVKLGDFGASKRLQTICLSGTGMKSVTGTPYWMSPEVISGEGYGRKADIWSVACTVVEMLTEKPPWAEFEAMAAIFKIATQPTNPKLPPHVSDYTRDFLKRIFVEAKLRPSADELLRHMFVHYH

The target of assay [9] is Mitogen-activated protein kinase kinase kinase kinase 1 (Homo sapiens, UniProt Q92918).
Assay [10] has as its target T2, Membrane-associated tyrosine- and threonine-specific cdc2-inhibitory kinase (Homo sapiens, UniProt Q99640).
T2 sequence (Q99640 whole entry): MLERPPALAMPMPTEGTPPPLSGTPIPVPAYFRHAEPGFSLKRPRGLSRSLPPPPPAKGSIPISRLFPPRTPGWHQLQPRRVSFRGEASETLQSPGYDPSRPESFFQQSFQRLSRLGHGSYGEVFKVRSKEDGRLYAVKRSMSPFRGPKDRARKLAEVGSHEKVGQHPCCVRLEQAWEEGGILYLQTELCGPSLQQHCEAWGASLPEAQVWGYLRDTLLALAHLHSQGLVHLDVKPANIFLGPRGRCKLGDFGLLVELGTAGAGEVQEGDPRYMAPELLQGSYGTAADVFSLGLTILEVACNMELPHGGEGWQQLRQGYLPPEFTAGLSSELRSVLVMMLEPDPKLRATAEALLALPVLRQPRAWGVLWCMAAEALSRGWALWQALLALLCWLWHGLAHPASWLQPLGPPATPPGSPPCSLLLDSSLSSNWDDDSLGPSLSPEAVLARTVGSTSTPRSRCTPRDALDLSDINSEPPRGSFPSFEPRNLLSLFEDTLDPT

In assay [11] the target is T3, Glycogen phosphorylase, brain form (Homo sapiens, UniProt P11216).
T3 sequence (P11216 whole entry): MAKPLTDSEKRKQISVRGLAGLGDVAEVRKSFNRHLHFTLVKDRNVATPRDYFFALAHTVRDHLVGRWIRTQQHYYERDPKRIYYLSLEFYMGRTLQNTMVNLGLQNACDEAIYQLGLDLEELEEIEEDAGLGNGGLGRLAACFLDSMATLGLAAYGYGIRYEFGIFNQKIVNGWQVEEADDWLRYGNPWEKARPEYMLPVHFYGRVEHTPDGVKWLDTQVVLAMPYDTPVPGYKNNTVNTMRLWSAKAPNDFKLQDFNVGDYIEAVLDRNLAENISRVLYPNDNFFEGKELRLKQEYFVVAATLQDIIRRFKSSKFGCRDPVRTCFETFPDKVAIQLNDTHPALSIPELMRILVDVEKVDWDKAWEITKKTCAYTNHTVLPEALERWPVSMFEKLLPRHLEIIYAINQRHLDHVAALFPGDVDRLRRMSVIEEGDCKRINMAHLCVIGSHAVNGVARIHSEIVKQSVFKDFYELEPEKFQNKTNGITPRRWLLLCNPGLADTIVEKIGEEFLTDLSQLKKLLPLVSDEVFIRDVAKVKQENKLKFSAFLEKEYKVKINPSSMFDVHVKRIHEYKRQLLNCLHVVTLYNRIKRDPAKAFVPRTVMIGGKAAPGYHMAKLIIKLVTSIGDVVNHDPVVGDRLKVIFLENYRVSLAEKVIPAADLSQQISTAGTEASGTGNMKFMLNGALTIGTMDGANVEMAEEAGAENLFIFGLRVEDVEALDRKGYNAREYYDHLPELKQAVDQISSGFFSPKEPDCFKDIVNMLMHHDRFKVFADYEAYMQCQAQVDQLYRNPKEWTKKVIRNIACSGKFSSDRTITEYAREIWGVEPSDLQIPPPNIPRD

Assay [12] concerns the target Rho-associated protein kinase 2 (Homo sapiens, UniProt O75116).
For another assay, the target named is DNA topoisomerase 2-beta (Homo sapiens, UniProt Q02880).
The target in assay [13] is T4, EKC/KEOPS complex subunit TP53RK (Homo sapiens, UniProt Q96S44).
T4 sequence (Q96S44 whole entry): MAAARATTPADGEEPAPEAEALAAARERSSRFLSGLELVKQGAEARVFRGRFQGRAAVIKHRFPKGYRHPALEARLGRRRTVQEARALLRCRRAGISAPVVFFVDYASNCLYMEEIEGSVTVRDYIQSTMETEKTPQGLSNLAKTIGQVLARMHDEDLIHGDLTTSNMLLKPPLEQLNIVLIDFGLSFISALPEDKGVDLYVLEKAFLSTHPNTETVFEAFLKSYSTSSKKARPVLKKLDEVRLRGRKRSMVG

The results in this text go back to ChEMBL document CHEMBL3991601, “The target landscape of clinical kinase drugs” (Science, 2017).

Active and inactive are the calls of the source. Where only a bound is given, the exact number is not on record here.
Further: in the data inactive means no Kd found up to 30 µM.

Sequence of Tyrosine-protein kinase ABL2 (P42684 whole entry): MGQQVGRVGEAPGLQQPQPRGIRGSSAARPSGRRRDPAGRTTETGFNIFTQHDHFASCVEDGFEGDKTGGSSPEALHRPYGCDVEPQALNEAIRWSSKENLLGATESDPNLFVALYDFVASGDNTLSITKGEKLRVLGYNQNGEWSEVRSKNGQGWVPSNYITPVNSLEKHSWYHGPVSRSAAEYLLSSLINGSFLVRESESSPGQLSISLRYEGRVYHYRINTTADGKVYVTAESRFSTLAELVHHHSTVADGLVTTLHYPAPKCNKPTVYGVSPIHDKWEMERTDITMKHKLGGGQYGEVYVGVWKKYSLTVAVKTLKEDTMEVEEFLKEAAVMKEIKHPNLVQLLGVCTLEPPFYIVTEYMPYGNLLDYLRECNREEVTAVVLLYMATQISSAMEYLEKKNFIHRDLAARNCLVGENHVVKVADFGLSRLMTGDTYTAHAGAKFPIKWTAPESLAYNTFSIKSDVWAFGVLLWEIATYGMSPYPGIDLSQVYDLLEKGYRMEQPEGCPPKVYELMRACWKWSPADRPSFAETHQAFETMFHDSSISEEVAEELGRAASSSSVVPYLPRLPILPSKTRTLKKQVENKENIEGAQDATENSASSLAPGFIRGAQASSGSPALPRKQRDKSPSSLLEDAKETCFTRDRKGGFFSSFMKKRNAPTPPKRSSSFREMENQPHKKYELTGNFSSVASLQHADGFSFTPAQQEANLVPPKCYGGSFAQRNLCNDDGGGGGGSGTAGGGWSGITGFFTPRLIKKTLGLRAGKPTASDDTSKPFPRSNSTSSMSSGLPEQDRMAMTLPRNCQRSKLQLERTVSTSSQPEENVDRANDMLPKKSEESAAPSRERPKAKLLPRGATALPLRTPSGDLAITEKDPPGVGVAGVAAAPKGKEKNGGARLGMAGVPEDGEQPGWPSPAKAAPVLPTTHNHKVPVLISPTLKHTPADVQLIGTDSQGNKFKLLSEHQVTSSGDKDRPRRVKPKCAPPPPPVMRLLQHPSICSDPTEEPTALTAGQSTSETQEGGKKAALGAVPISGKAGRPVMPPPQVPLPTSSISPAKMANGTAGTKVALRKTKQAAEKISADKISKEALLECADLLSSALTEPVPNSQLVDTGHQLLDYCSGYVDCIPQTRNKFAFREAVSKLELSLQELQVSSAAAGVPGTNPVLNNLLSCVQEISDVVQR
Sequence of Rho-associated protein kinase 2 (O75116 whole entry): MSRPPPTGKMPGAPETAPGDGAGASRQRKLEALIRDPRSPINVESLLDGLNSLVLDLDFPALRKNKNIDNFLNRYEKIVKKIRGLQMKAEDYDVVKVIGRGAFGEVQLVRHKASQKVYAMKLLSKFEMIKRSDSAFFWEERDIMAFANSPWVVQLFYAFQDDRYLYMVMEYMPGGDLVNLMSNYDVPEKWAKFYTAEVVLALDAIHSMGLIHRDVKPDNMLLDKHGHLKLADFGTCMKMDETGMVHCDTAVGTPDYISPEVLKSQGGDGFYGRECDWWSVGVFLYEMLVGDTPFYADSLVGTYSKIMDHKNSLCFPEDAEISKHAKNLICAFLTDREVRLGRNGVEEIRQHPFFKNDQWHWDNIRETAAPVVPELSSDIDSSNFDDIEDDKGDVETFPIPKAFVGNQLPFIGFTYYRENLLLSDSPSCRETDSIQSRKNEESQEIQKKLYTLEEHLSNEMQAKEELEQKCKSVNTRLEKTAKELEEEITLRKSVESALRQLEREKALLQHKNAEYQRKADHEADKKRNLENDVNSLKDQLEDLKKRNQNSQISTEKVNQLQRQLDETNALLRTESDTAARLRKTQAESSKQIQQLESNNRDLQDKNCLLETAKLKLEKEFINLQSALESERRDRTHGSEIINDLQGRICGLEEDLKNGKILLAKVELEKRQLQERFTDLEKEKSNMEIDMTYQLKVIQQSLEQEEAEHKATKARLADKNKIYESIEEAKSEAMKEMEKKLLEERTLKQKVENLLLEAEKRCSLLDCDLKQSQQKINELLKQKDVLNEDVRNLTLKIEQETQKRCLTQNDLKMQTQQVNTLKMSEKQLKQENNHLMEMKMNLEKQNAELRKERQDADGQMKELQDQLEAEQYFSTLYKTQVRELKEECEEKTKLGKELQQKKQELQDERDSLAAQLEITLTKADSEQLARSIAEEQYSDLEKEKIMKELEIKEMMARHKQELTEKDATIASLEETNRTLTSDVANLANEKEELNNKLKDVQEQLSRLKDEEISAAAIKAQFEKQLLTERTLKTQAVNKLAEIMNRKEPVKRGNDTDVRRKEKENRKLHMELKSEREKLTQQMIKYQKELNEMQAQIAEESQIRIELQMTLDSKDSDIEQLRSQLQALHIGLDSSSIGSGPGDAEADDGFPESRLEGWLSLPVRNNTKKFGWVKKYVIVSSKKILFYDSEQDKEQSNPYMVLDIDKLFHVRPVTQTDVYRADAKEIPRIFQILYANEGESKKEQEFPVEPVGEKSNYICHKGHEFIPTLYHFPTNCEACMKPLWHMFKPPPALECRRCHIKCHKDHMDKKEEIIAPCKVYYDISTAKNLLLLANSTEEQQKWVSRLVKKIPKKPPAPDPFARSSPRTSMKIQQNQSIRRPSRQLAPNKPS
Sequence of Casein kinase I isoform gamma-1 (Q9HCP0 whole entry, canonical isoform): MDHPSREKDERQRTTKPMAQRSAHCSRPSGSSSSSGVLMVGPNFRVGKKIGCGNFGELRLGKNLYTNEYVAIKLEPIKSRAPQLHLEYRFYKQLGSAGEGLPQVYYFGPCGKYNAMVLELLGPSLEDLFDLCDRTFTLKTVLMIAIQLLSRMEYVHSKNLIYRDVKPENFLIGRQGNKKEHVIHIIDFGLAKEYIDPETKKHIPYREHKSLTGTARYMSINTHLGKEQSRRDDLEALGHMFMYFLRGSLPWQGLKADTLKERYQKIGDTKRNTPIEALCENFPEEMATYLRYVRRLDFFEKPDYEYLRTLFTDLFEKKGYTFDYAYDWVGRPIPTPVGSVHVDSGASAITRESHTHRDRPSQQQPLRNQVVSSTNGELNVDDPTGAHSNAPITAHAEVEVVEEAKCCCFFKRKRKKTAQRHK
Sequence of Chromodomain-helicase-DNA-binding protein 4 (Q14839 whole entry, canonical isoform): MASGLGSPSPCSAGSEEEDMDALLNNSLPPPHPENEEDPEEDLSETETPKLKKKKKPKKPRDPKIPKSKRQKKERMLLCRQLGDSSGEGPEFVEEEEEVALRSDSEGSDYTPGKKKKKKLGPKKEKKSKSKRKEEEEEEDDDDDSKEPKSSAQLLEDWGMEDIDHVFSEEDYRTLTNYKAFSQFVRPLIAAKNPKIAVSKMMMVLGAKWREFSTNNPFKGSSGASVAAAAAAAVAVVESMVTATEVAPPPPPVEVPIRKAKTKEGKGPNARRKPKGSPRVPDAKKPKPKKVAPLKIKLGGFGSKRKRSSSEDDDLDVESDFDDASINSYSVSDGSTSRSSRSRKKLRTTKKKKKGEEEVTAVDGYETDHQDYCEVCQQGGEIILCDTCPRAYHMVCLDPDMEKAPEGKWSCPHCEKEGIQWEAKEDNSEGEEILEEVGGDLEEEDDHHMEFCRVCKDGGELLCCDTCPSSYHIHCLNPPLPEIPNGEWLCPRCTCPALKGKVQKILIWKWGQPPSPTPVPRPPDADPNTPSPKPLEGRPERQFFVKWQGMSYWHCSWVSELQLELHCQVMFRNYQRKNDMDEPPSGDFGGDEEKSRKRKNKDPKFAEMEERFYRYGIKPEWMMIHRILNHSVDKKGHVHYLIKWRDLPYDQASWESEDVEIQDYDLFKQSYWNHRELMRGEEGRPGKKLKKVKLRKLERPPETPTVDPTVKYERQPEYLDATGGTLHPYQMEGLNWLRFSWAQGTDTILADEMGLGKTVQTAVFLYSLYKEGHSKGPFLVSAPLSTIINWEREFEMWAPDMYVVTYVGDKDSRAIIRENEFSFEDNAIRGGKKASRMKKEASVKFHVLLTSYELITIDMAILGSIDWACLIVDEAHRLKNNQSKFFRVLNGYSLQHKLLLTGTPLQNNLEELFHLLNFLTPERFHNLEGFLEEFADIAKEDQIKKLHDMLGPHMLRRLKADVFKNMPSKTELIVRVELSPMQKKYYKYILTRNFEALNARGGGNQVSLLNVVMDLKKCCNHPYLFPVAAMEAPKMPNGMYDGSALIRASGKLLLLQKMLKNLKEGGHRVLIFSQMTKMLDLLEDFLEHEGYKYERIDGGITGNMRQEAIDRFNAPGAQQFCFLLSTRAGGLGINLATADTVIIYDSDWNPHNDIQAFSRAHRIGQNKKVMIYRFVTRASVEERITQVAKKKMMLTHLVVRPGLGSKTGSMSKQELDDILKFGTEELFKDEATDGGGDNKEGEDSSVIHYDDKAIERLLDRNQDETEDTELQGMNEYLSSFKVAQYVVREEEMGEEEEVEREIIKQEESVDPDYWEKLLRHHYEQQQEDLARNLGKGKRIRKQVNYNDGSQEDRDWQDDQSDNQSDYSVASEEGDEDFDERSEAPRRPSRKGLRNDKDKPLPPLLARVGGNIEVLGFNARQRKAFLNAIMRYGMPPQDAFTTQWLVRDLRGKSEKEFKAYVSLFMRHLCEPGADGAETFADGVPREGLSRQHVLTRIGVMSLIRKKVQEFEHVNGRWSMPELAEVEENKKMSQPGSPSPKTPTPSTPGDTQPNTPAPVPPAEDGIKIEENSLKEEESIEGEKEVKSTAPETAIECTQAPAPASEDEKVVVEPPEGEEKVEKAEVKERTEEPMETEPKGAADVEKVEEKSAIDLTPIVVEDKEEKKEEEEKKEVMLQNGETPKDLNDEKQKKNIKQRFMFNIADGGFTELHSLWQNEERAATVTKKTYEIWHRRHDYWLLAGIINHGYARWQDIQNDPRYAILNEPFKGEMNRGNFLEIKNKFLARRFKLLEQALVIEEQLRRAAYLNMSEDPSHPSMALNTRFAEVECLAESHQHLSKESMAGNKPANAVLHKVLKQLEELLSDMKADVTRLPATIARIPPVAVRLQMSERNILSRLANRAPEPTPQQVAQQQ

Regarding `Cc1nc(Nc2n[nH]c3c2CN(C(=O)N[C@H](CN(C)C)c2ccccc2)C3(C)C)c2sccc2n1` [PF-03758309], the Kd (usually the concentration at which binding is half-saturated) in assay [1] was 0.939 µM (active); in assay [2], > 30 µM (inactive); in assay [3] it was > 30 µM (inactive); in assay [4], > 30 µM (inactive); in assay [5] it was > 30 µM (inactive); in [6], > 30 µM (inactive). Further, the Kd in [7] is > 30 µM (inactive); in assay [8], > 30 µM (inactive); in assay [9], 2.3 µM (active); in assay [10], > 30 µM (inactive); in assay [11] it was > 30 µM (inactive); in assay [12], > 30 µM (inactive). Further, the Kd (on DNA topoisomerase 2-beta; in [13]) was > 30 µM (inactive) in each case.
As for `Cc1cnc(NC(=O)Nc2cc(Br)c(C)cc2OC[C@@H]2CNCCO2)cn1` [RABUSERTIB], the Kd in [1], in [2], in [3], in [4], in assay [5] and in assay [6] was > 30 µM (inactive) in each case. The Kd in assay [7], in assay [8], in assay [9], in [10], in assay [11] and in assay [12] was > 30 µM (inactive) in each case. The Kd (on DNA topoisomerase 2-beta; in assay [13]) was > 30 µM (inactive) throughout.
With `CNC(=O)c1cc(Oc2ccc(NC(=O)Nc3cc(C(C)(C)C)nn3-c3ccc4ncccc4c3)c(F)c2)ccn1` [REBASTINIB], the Kd in assay [1] was 0.135 µM (active); in assay [2] it was > 30 µM (inactive); in assay [3] it was > 30 µM (inactive); in [4], > 30 µM (inactive); in [5], > 30 µM (inactive); in assay [6], > 30 µM (inactive). In addition, the Kd is > 30 µM (inactive) in assay [7]; > 30 µM (inactive) in assay [8]; 0.566 µM (active) in assay [9]; > 30 µM (inactive) in assay [10]; > 30 µM (inactive) in assay [11]; > 30 µM (inactive) in assay [12]. Besides, the Kd (on DNA topoisomerase 2-beta; in [13]) was > 30 µM (inactive) throughout.
On to `CO[C@H]1C[C@@H]2CC[C@@H](C)[C@@](O)(O2)C(=O)C(=O)N2CCCC[C@H]2C(=O)O[C@H]([C@H](C)C[C@@H]2CC[C@@H](OP(C)(C)=O)[C@H](OC)C2)CC(=O)[C@H](C)/C=C(\C)[C@@H](O)[C@@H](OC)C(=O)[C@H](C)C[C@H](C)/C=C/C=C/C=C/1C` [RIDAFOROLIMUS], for which the Kd in assay [1], in assay [2], in [3], in assay [4], in [5] and in assay [6] was > 30 µM (inactive) throughout. Moreover, the Kd in assay [7], in assay [8], in [9], in assay [10], in assay [11] and in assay [12] was > 30 µM (inactive) in each case. For the same molecule, the Kd (at DNA topoisomerase 2-beta; in [13]) was > 30 µM (inactive) in each case.
With `N#CC1(c2ccc(NC(=O)c3cccnc3NCc3ccncc3)cc2)CCCC1` [RIVOCERANIB], the Kd in assay [1], in assay [2], in assay [3], in assay [4], in assay [5] and in [6] was > 30 µM (inactive) in each case. Further, the Kd in assay [7], in assay [8], in assay [9], in assay [10], in [11] and in assay [12] was > 30 µM (inactive) in each case. The Kd (at DNA topoisomerase 2-beta; in [13]) was > 30 µM (inactive) throughout.
